Assay results published in PMC6148290, “Endogenous metabolites of vitamin E limit inflammation by targeting 5-lipoxygenase” (Nature Communications, 2018).
pIC50: −log10 of the molar value.

Assays:
OVA-sensitized mice = test: Airway hyper-reactivity in OVA-sensitized mice; type: in vivo, mouse; settings: 10 mg/kg i.p. at days 0 and 7; day 21
Method: BALB/c mice were sensitized to OVA, and bronchial reactivity and pulmonary LTC4 levels were measured. On days 0 and 7, α-T-13′-COOH (4a; 10 mg/kg, i.p.) or vehicle (4% DMSO in saline; 0.5 ml) were administered 30 min before injection of OVA (100 µg; Sigma Aldrich) which was adsorbed to aluminum hydroxide gel (3.3 mg; Sigma Aldrich). Mice were sacrificed on day 21, and bronchi were collected. Bronchial rings of 1–2 mm length were cut and placed in organ baths mounted to isometric force transducers (Type 7006, AD Instruments, Ugo Basile, Comerio, Italy) and connected to a Powerlab 800 (AD Instruments). Rings were initially stretched until a resting tension of 0.5 g was reached and allowed to equilibrate for at least 30 min. In each experiment, bronchial rings were challenged with carbachol (10^−6 M) until the response was reproducible. Bronchial reactivity was then assessed from a cumulative concentration–response curve to carbachol (1 × 10^−8 − 3 × 10^−5 M). To determine pulmonary LTC4 levels, lungs were isolated and homogenized in PBS pH 7.4 (100 mg tissue/ml) prior to detection of LTC4 by enzyme immunoassay (Cayman Chemicals).

12-LO = target: T1, 12-LO (Homo sapiens, UniProt P18054); test: 12-LO product formation in A23187/AA-activated PMNL; type: cell-based
T1 construct: 12-HETE (12-LO product from platelets in PMNL preparations); endogenous in cells; host or cells: platelets contaminating human PMNL preparations
T1 sequence (P18054 1-663): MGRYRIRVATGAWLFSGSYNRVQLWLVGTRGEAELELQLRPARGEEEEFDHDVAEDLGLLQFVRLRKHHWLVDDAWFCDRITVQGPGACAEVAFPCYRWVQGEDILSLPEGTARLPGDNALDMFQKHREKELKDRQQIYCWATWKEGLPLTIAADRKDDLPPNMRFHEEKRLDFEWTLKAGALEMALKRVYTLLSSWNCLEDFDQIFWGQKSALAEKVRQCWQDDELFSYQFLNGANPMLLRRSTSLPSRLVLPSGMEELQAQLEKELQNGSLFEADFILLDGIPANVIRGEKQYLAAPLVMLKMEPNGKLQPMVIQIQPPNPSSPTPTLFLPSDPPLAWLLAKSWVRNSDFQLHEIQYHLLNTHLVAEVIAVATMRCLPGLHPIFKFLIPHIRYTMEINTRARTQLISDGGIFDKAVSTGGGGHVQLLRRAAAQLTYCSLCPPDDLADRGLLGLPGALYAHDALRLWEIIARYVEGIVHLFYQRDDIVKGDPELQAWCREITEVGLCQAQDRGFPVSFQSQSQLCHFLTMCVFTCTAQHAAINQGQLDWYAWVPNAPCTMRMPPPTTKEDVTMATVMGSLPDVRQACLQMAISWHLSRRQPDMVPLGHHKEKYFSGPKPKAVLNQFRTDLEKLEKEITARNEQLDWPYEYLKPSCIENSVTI

bovine COX-1 = target: T2, bovine COX-1 (Bos taurus, UniProt O62664); test: Activity of isolated COX-1; type: biochemical
T2 construct: purchased Cayman Chemicals
T2 sequence (O62664 25-600): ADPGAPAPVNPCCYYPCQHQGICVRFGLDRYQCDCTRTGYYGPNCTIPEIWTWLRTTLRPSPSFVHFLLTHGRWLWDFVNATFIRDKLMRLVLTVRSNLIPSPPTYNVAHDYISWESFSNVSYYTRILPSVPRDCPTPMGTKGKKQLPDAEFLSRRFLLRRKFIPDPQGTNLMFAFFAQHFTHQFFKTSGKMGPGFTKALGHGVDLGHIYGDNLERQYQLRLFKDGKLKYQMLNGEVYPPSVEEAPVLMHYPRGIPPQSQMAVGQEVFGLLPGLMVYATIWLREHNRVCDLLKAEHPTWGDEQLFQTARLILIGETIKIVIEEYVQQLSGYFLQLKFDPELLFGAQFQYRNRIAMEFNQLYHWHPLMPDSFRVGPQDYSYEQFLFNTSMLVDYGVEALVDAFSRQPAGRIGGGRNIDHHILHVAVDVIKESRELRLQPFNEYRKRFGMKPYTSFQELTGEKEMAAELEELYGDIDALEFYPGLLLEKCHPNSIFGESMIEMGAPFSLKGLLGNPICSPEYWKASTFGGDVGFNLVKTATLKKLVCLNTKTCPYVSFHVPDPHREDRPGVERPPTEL
Method: Purified bovine COX-1 (Cayman Chemicals; 50 units) or human recombinant COX-2 (Cayman Chemicals; 20 units) in 100 mM Tris buffer pH 8, 5 mM glutathione, 5 µM hemoglobin, and 100 µM EDTA were pre-incubated with LCMs for 5 min at 4 °C followed by 1 min at 37 °C. Formation of COX-derived 12(S)-hydroxy-5-cis-8,10-trans-heptadecatrienoic acid (12-HHT) was initiated by addition of AA (COX-1: 5 μM; COX-2: 2 μM).

## Cc1c(C)c2c(c(C)c1O)CC[C@@](C)(CCCC(C)CCCC(C)CCCC(C)C(=O)O)O2 (stereo partly drawn) [4a, 13-((2R)-6-hydroxy-2,5,7,8-tetramethylchroman-2-yl)-2,6,10-trimethyltridecanoic acid]
OVA-sensitized mice
  OVA-induced bronchial hyper-reactivity to carbachol: significantly inhibited
  pulmonary LTC4 levels: lowered pulmonary LTC4 to basal levels
12-LO
  pIC50: < 5.52
12-LO; at 3 µM, mean ± s.e.m., n = 3, n.i. no inhibition
  12-LO product formation/PMNL, residual activity: 55.3 ± 1.7 % of control
Bovine COX-1
  pIC50: < 5.00
